Where a name gives a salt, the structure may show the parent alone.
Tested on: SARS-CoV-2
Test: microbe, parasite or virus in culture
Conditions: Severe acute respiratory syndrome coronavirus 2, Vero C1008, 48 h

Compound | IC50 [µM] | IC50 (read-out: pIC50 (converted)) [µM]
Cc1oncc1C(=O)Nc1ccc(C(F)(F)F)cc1 [LEFLUNOMIDE] | > 20 | > 20
N=C(N)NCCCNC(=O)[C@@H]1CCCCN1C(=O)[C@H](CC1CCCCC1)NCC(=O)O | > 20 | > 20
CC(C(N)C(=O)NC(C(=O)O)C1OC(n2ccc(=O)[nH]c2=O)C(O)C1O)C(O)c1ccc(O)cn1 (centres undefined) | > 20 | > 20
O=S(=O)(c1ccccc1)c1cnc2c(N3CCNCC3)cccc2c1 [INTEPIRDINE] | > 20 | > 20
O=C(CN1CCN(Cc2ccc3c(c2)OCO3)CC1)N1c2ccccc2Sc2ccccc21 [FENOVERINE] | > 20 | > 20
Cc1ccc(C(C)C)c(O)c1 [THYMOL] | > 20 | > 20
CNn1cc(C(=O)O)c(=O)c2cc(F)c(N3CCN(C)CC3)cc21 [AMIFLOXACIN] | > 20 | > 20
CC12CCC3C4CCC(=O)C=C4CCC3C1CCC2OC(=O)CCc1ccccc1 (centres undefined) | > 20 | > 20
Cc1cnc(N2CC3(CCOCC3)C2)c(C(=O)Nc2ccc(C(=O)N3CCc4cc(C(=O)Nc5c(C)cccc5F)sc4-c4ccccc43)cc2)c1 [PC-786] | > 20 | > 20
C[C@H]1[C@H]2C(=O)c3ccc(O)cc3[C@]1(C)CCN2CC1CC1 [KETAZOCINE] | > 20 | > 20
CC(Oc1ccc(Cl)cc1Cl)C(=O)O (stereo not drawn) [RAC-DICHLORPROP] | > 20 | > 20
C1CCC(C(CC2CCCCN2)C2CCCCC2)CC1 (centres undefined) [PERHEXILINE MALEATE] | > 20 | > 20
CC[C@H]1OC(=O)[C@H](C)[C@@H](O[C@H]2C[C@@](C)(OC)[C@@H](O)[C@H](C)O2)[C@H](C)[C@@H](O[C@@H]2O[C@H](C)C[C@H](N(C)C)[C@H]2O)[C@](C)(O)C[C@@H](C)C(=O)[C@H](C)[C@H]2OC(=O)O[C@@]21C | > 20 | > 20
CC1(COc2ccc3c(c2)ncn3-c2ccc3cccc(N4CCC(N)CC4)c3n2)COC1 [CRENOLANIB] | > 20 | > 20
COCCCC/C(=N\OCCN)c1ccc(C(F)(F)F)cc1 [FLUVOXAMINE] | > 20 | > 20
CCc1nc2ccc(Cl)cn2c1C(=O)NCc1ccc(N2CCC(c3ccc(OC(F)(F)F)cc3)CC2)cc1 [TELACEBEC] | > 20 | > 20
Cc1ccsc1/C=C/C1=NCCCN1C [MORANTEL] | > 20 | > 20
c1ccc([C@H]2CN3CCSC3=N2)cc1 [LEVAMISOLE] | > 20 | > 20
O=C1CC(c2ccc(O)c(O)c2)Oc2cc(O)cc(O)c21 (centres undefined) | > 20 | > 20
[O-][S+](c1cc(Cl)cc(Cl)c1O)c1cc(Cl)cc(Cl)c1O [BITHIONOLOXIDE] | > 20 | > 20
CC(=O)N(C)C1(c2ccccc2)CCN(CCC[C@]2(c3ccc(Cl)c(Cl)c3)CCCN(C(=O)c3ccccc3)C2)CC1 [OSANETANT] | > 20 | > 20
COc1ccc2c(c1)C(C(=O)N(Cc1ccc(N(C)C)cc1)c1ccc(C(C)C)cc1)CCC2 (centres undefined) | > 20 | > 20
C[N+]1(CCC(C(N)=O)(c2ccccc2)c2ccccc2)CCCCCC1 [BUZEPIDE] | > 20 | > 20
COc1cc(F)c(F)c(Nc2ccc(I)cc2F)c1NS(=O)(=O)C1(C[C@H](O)CO)CC1 [REFAMETINIB] | > 20 | > 20

Compound | IC50 [µM] | IC50 (read-out: pIC50 (converted)) [µM]
CC(=O)OC1CN2CCC1CC2 (centres undefined) [ACECLIDINE] | > 20 | > 20
O=[N+]([O-])c1c(Cl)cccc1-c1c[nH]cc1Cl [PYRROLNITRIN] | > 20 | > 20
CC(C)[N+](C)(CCC(C(N)=O)(c1ccccc1)c1ccccc1)C(C)C [ISOPROPAMIDE] | > 20 | > 20
NC12CC3CC(CC(C3)C1)C2 [AMANTADINE] | > 20 | > 20
CC(=O)OCC(=O)C12N=C(C)OC1CC1C3CCC4=CC(=O)C=CC4(C)C3(F)C(O)CC12C (centres undefined) | > 20 | > 20
Cc1cc(O)c2c(c1)C(=O)c1cc(O)cc(O)c1C2=O [EMODIN] | > 20 | > 20
CC(=O)c1cnc2ccc(-c3cc(Cl)c(O)c(Cl)c3)nc2c1N[C@H]1CC[C@H](CN(C)C)CC1 | > 20 | > 20
Cc1ccc(/C=C/C(=O)NCCCCN2CCN(C(c3ccccc3)c3ccccc3)CC2)cn1 [TAGORIZINE] | > 20 | > 20
OC[C@@H]1CCCN2CCCCC12 (some centres undefined) | > 20 | > 20
COc1cc(N)c(Cl)cc1C(=O)N[C@H]1CCNC[C@H]1OC | > 20 | > 20
CCCCCCCCCC(=O)OCCN1CCN(CCCN2c3ccccc3Sc3ccc(C(F)(F)F)cc32)CC1 [FLUPHENAZINE DECANOATE] | > 20 | > 20
COc1cc(C(=O)NCc2ccc(OCCN(C)C)cc2)cc(OC)c1OC [TRIMETHOBENZAMIDE] | > 20 | > 20
CC1CC2Oc3ccc(Cl)cc3C(=O)N2O1 (centres undefined) [MESECLAZONE] | > 20 | > 20
N[C@@H]1c2cccnc2[C@H](OC(=O)N2CCC(n3c(=O)[nH]c4ncccc43)CC2)CC[C@H]1c1cccc(F)c1F [RIMEGEPANT] | > 20 | > 20
CC1CC[C@@]2(OC1)OC1CC3C4CC[C@@H]5C[C@@H](O)CC[C@]5(C)C4CC[C@]3(C)C1[C@@H]2C (some centres undefined) | > 20 | > 20
COc1ccc(-c2cc(=S)ss2)cc1 [ANETHOLTRITHION] | > 20 | > 20
Nc1ccccc1C(=O)CC(N)C(=O)O (centres undefined) [KYNURENINE] | > 20 | > 20
COc1ccc(-c2cc3c(C)nc(N)nc3n([C@H]3CC[C@H](OCCO)CC3)c2=O)cn1 [PF-04691502] | > 20 | > 20
O=C1NCCN1c1ncc([N+](=O)[O-])s1 [NIRIDAZOLE] | > 20 | > 20
CC1(C)CC[C@]2(C(=O)O)CC[C@]3(C)C(=CCC4[C@@]5(C)CC[C@@H](O)[C@@](C)(CO)C5CC[C@]43C)C2C1 (some centres undefined) | > 20 | > 20
COC(=O)C1=CCCN(C)C1 [ARECOLINE] | > 20 | > 20
CCn1cc(C(=O)O)c(=O)c2cnc(N3CCCC3)nc21 [PIROMIDIC ACID] | > 20 | > 20
CNCC(O)c1cccc(O)c1 (centres undefined) | > 20 | > 20
CCC(=O)OC1C(OC2C(C)C(OC3CC(C)(OC)C(O)C(C)O3)C(C)C(=O)OC(CC)C(C)(O)C(O)C(C)C(=O)C(C)CC2(C)O)OC(C)CC1N(C)C (centres undefined) | > 20 | > 20

Compound | IC50 [µM] | IC50 (read-out: pIC50 (converted)) [µM]
CC12CCC(=O)C=C1CCC1C2C(O)CC2(C)C1CCC2(O)C(=O)COP(=O)(O)O (centres undefined) | > 20 | > 20
CCCOC(=O)c1ccc(O)cc1 [PROPYLPARABEN] | > 20 | > 20
CC1=N[C@H](C(=O)O)[C@@H](O)CN1 | > 20 | > 20
CCN(CC)CCN(CC)CC(=O)Nc1ccccc1Cl [CLODACAINE] | > 20 | > 20
O=[N+]([O-])c1cc([As](=O)(O)O)ccc1O [ROXARSONE] | > 20 | > 20
CCOC(=O)CCC(=O)O[C@H]1[C@H](O[C@@H]2[C@@H](C)[C@H](O[C@H]3C[C@@](C)(OC)[C@@H](O)[C@H](C)O3)[C@@H](C)C(=O)O[C@H](CC)[C@@](C)(O)[C@H](O)[C@@H](C)C(=O)[C@H](C)C[C@@]2(C)O)O[C@H](C)C[C@@H]1N(C)C [ERYTHROMYCIN ETHYLSUCCINATE] | > 20 | > 20
CC[C@@]1(O)C(=O)OCc2c1cc1n(c2=O)Cc2c-1nc1ccccc1c2CCNC(C)C [BELOTECAN] | > 20 | > 20
CC(C(=O)O)c1ccc(C(=O)c2cccs2)cc1 (centres undefined) [SUPROFEN] | > 20 | > 20
COc1cc(NC(C)CCCN)c2ncccc2c1 (centres undefined) [PRIMAQUINE] | > 20 | > 20
Oc1ccc2ccccc2c1 [BETANAPHTHOL] | > 20 | > 20
C=C[C@]1(C)C[C@@H](OC(=O)CSCCN(CC)CC)[C@]2(C)C(C)CC[C@]3(CCC(=O)[C@@H]32)[C@@H](C)[C@@H]1O (some centres undefined) | > 20 | > 20
O=C(O)CO [GLYCOLIC ACID] | > 20 | > 20
CC(C)C[C@H](N)C(=O)O [LEUCINE] | > 20 | > 20
CCn1c(=Cc2cccc[n+]2CC)sc(=C2Sc3ccccc3N2C)c1=O | > 20 | > 20
NCCS(=O)(=O)O [TAURINE] | > 20 | > 20
CNC(=O)c1ccc(N2C(=S)N(c3cnc(C#N)c(C(F)(F)F)c3)C(=O)C23CCC3)cc1F [APALUTAMIDE] | > 20 | > 20
CC(N)CCCC(C)(C)O (centres undefined) [HEPTAMINOL] | > 20 | > 20
C[C@@H]1N=C(N)O[C@@H]1c1ccccc1 (relative stereo) | > 20 | > 20
CC(C)COCC(CN(Cc1ccccc1)c1ccccc1)N1CCCC1 (centres undefined) [BEPRIDIL] | > 20 | > 20
CCN(CC)CCOc1ccccc1-n1c(C)ccc1-c1ccccc1 [LEIOPYRROLE] | > 20 | > 20
CC(=O)O[C@H]1C[C@H](O[C@H]2[C@@H](O)C[C@H](O[C@H]3[C@@H](O)C[C@H](OC4CCC5(C)C(CCC6C5CCC5(C)C(C7=CC(=O)OC7)CCC65O)C4)O[C@@H]3C)O[C@@H]2C)O[C@H](C)[C@H]1O[C@@H]1O[C@H](CO)[C@@H](O)[C@H](O)[C@H]1O (some centres undefined) | > 20 | > 20
Cc1ccc(-c2ncc(Cl)cc2-c2ccc(S(C)(=O)=O)cc2)cn1 [ETORICOXIB] | > 20 | > 20
CCC(=O)NS(=O)(=O)c1ccc(NC(=O)COc2ccc(Cl)cc2C(=O)c2cc(Cl)cc(C#N)c2)c(C)c1 [GW-695634] | > 20 | > 20
Nc1nc(OC(c2ccc(-c3cccc(F)c3)cc2)C(F)(F)F)cc(-c2ccc(C[C@H](N)C(=O)O)cc2)n1 (some centres undefined) | > 20 | > 20

From ChEMBL document CHEMBL4651402, “Screening of ~5500 FDA-approved drugs and clinical candidates for anti-SARS-CoV-2 activity” (2021)
